Results reported in patent US20070265269A1, “Water Soluble Esters of [N-(4-Amino-2-Butynyl)] with Anticancer Activity” (priority 2004, published 2007).

Key:
[1] = tested on: Fibroblast (Flow 4000, lung fibroblasts); assay: toxicity on normal cells, tetrazolium-based proliferation assay (EZ4U kit); format: cell-based; details: for % Inhibition of growth: concentration of 1:400, normal cells, Flow 4000 lung fibroblasts, 4 days incubation; for toxicity to fibroblasts: result in words
Experimental: Cells were distributed to the wells of 96 well microtiter plates (10000 cells/well) in tissue culture medium (RPMI-1640 supplemented with 10% fetal bovine serum and 4 mM glutamine) and medium added for controls. Test compounds were added in the reported dilution steps and the plates incubated for 4 days under tissue culture conditions (37° C., 5% CO2).
Following incubation proliferation was measured using a tetrazolium-based assay (EZ4U kit, Biomedica, Vienna, Austria). Optical densities (OD) of the individual wells was determined with the help of an ELISA-Reader (all values done in triplicate) and the values obtained in medium controls set to 100% (OD490nm=0.5-1.5).
In addition the toxicity of a number of the esters of the invention have been tested on normal cells, Fibroblast (Flow 4000, lung fibroblasts).

[2] = tested on: panel of human tumour cell lines; assay: anti-cancer activity, tetrazolium-based proliferation assay (EZ4U kit) in a panel of tumour cell lines; details: result in words
Experimental: For the following test the following cell lines have been used:
Cell lines. Except indicated otherwise all cell lines were obtained from the American Type Culture Collection (ATCC, Rockville, Md.) and grown to confluent monolayers in RPMI-1640 bicarbonate medium (Seromed, Berlin, Germany) in a humidified incubator (5% CO2, 37° C.). Cells were checked for mycoplasma contamination. The medium was supplemented with 10% heat-inactivated fetal bovine serum (Seromed) and 4 mM glutamine. The cells were subcultured by trypsination (0.03% trypsin containing 0.02% EDTA, three times a week). Cell numbers were counted using a TOA Sysmex microcellcounter (TOA, Tokyo, Japan).
Chemicals and solutions. Unless otherwise mentioned, all chemicals were obtained from Sigma (St. Louis, Mo.). Compounds to be tested were used as supplied. CHP was used as 5 mg/ml stock solution in PBS (phosphate buffered saline, Dulbecco) and aliquots were stored frozen at −20° C. Related compounds were used as 2 mg/ml stock solution and stored frozen at −20° C. […]
Following incubation proliferation was measured using a tetrazolium-based assay (EZ4U kit, Biomedica, Vienna, Austria). Optical densities (OD) of the individual wells was determined with the help of an ELISA-Reader (all values done in triplicate) and the values obtained in medium controls set to 100% (OD490nm=0.5-1.5). […]

Row | SMILES | % Inhibition of growth [1] [%] | toxicity to fibroblasts [1] | antitumor activity [2]
1 | CC(C)(C)C(=O)OCC#CCN1CCOCC1 [L18, N-(4-morpholino-2-butynyl)pivalate] | 7 | low toxicity to fibroblasts | highest antitumor activity
2 | CCN(CC)CC#CCOC(C)=O [L9, N-[4-(N,N-diethylamino)-2-butynyl]acetate] | 5.4 |  | 
3 | O=C(OCC#CCN1CCOCC1)c1ccccc1 [L4, N-(4-morpholino-2-butynyl)benzoate] | 34.2 |  | 
4 | CCC(=O)OCC#CCN1CCOCC1 [L15, N-(4-morpholino-2-butynyl)propionate] | 13 |  | 
5 | CC(=O)OCC#CCN1CCSCC1 [L13, N-(4-thiomorpholino-2-butynyl)acetate] | 19 |  | 
6 | CC(=O)OCC#CCN(c1ccccc1)c1ccccc1 [L12, N-[4-(N,N-diphenylamino)-2-butynyl]acetate] | −7.6 |  | 
7 | O=COCC#CCN1CCOCC1 [L6, N-(4-morpholino-2-butynyl)formate] | 37.4 |  | 
8 | CC(=O)OCC#CCN1CCOCC1 [L2, N-(4-morpholino-2-butynyl)acetate] | 18 | low toxicity to fibroblasts | highest antitumor activity
